The values below are quoted from earlier work in PMC12682717, “Radiolabelling and bioequivalence of modified Tamoxifen solid lipid nanoparticles as a targeted chemotherapeutic drug” (Drug Delivery and Translational Research, 2025).

The conditions of data set [1]: no reference given.
Details of data set [2]: method as in PMID 32151063, PMID 37906415. Conditions: patients.

Structures can show the parent of a compound that is named as a salt.

For `CC/C(=C(\c1ccccc1)c1ccc(OCCN(C)C)cc1)c1ccccc1` [TAM, Tamoxifen citrate], the “biopharmaceutical categorization system (BCS) class” value in data set [1] is “class II”. In addition, in data set [2], the “side effect: depression, irritability or vaginal dryness” value is given as 35%; the “side effect: hot flashes” value is listed as 64%; the “side effect: mood swings” value was 6%; the “side effect: sleep issues” value is listed as 36%. Also, the “side effect: weight gain” value in data set [2] was 6%.
